pIC50: −log10 of the molar value.
Tests used:
[1] = target: T1, Full length DGKζ (in-house protein M1-V929) (Homo sapiens, UniProt Q13574); experiment: Biochemical DGK IC50 assay (ADP-Glo, lipid micelle substrate), DGKζ; conditions: 0.5 nM enzyme, 140 μM ATP, 80 μM DAG, 1 hour preincubation, 1 hour reaction, room temperature, read-out: IC50s for DGKζ
T1 construct: His (N); TEV cleavage site (N); made in house; host or cells: Sf9 insect cells (baculovirus, Bac-to-Bac)
In short: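 In-house full-length human DGKζ, baculovirus-expressed in Sf9 cells, was assayed with a DAG/PS lipid micelle substrate at room temperature. Buffer was 50 mM HEPES, 10 mM MgCl2, 0.01% BSA, 0.1 mM Na3VO4, 0.005% Tween-20, 0.01 mM CaCl2, with final compound 1.55˜10000 nM or 23.3˜150000 nM.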

[2] = target: T2, Full length DGKα (D21-10BG, SignalChem) (Homo sapiens, UniProt P23743); experiment: Biochemical DGK IC50 assay (ADP-Glo, lipid micelle substrate), DGKα; conditions: 7.5 nM enzyme, 140 μM ATP, 80 μM DAG, 1 hour preincubation, 1 hour reaction, room temperature, read-out: IC50s for DGKα
T2 construct: Full length DGKα (D21-10BG, SignalChem); purchased SignalChem D21-10BG
T2 sequence (P23743 whole entry): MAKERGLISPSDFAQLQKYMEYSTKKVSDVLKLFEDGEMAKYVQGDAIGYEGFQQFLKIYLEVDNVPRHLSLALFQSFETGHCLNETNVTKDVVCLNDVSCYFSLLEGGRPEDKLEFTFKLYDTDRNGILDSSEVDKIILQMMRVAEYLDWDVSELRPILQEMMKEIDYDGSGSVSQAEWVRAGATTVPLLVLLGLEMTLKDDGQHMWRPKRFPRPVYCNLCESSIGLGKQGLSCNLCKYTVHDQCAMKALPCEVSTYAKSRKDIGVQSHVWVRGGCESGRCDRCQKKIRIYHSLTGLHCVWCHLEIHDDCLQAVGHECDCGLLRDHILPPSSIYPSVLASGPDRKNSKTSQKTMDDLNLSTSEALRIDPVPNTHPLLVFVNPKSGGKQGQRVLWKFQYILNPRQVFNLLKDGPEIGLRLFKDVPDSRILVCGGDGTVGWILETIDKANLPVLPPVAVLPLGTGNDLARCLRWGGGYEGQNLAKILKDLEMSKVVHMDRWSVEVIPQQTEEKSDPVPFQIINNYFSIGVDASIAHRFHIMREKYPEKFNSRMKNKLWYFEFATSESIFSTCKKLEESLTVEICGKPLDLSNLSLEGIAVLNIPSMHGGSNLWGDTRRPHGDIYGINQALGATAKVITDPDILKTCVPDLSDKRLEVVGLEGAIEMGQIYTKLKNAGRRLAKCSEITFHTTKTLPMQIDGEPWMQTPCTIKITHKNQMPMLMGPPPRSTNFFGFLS
In short: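 Full-length enzyme was assayed by ADP-Glo on DAG/PS lipid micelles at room temperature in HEPES/MgCl2/CaCl2 buffer with BSA, Na3VO4 and Tween-20, using a 1 h reaction and luminescence read-out.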

T1 sequence (Q13574 1-929 isoform Q13574-4): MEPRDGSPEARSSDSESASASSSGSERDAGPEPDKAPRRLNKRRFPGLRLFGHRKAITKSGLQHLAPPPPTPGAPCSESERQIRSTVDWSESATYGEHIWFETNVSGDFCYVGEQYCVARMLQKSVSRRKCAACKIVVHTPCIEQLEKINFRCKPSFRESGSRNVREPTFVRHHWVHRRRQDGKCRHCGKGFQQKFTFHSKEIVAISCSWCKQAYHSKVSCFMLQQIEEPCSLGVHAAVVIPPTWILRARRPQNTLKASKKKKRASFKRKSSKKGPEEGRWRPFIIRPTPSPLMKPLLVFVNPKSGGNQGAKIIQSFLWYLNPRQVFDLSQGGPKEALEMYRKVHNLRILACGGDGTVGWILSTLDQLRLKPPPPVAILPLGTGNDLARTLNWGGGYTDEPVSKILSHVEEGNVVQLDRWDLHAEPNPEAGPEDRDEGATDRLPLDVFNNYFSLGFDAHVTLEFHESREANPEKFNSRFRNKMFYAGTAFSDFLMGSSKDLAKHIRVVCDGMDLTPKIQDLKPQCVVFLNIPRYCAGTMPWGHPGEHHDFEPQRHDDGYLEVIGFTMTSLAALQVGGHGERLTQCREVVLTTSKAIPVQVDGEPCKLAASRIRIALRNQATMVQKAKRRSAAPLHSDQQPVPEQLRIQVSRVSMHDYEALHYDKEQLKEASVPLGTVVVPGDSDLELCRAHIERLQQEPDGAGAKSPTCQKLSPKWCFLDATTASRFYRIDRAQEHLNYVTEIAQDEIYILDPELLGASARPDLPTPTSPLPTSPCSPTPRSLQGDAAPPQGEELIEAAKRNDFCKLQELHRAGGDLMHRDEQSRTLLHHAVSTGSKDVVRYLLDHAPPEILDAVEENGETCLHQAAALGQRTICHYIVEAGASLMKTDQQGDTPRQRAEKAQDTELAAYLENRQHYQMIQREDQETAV

Structure (SMILES)	pIC50 [1]	pIC50 [2]
CC[C@H]1CN(C(C)c2ccc(C3CC3(F)F)nc2)[C@H](CC)CN1c1cc(=O)n(C)n2cc(CC#N)nc12 (single isomer, unassigned) [Compound A70b]	6.05	6.33
CC[C@@H]1CN(c2cc(=O)n(C)n3cc(C=NOC)nc23)[C@@H](C)CN1C(C)c1ccc2nccnc2c1 (single isomer, unassigned) [Compound A9d]	< 5.00	6.68
CC[C@H]1CN(C(C)c2ccc3nc(C)sc3n2)[C@H](CC)CN1c1c(Br)c(=O)n(C)n2cc(CC#N)nc12 (stereo partly drawn) [Compound A83, 2-(7-bromo-8-((2S,5R)-2,5-diethyl-4-(1-(2-methylthiazolo[5,4-b]pyridin-5-yl)ethyl)piperazin-1-yl)-5-methyl-6-oxo-5,6-dihydroimidazo[1,2-b]pyridazin-2-yl)acetonitrile]	< 5.00	4.37
CC(c1ccc2nccnc2c1)N1C[C@H](C)N(c2cc(=O)n(C)n3cc(CS(C)(=O)=O)nc23)C[C@H]1C (stereo partly drawn) [Compound A11, 8-((2S,5R)-2,5-dimethyl-4-(1-(quinoxalin-6-yl)ethyl)piperazin-1-yl)-5-methyl-2-((methylsulfonyl)methyl)imidazo[1,2-b]pyridazin-6(5H)-one]	< 5.00	< 5.00
CC[C@H]1CN(C(C)c2ccc3nc(C)sc3n2)[C@H](CC)CN1c1c(F)c(=O)n(C)n2cc(CC#N)nc12 (single isomer, unassigned) [Compound A82b]	5.98	6.63
CC[C@H]1CN(C(C)c2ccc3nccnc3c2)[C@H](CC)CN1c1cc(=O)n(C)n2cc(COC)nc12 (single isomer, unassigned) [Compound A8b]	5.88	5.29
CC(c1ccc2nccnc2c1)N1C[C@H](C)N(c2cc(=O)n(C)n3cc(CO)nc23)C[C@H]1C (stereo partly drawn) [Compound A3, 8-((2S,5R)-2,5-dimethyl-4-(1-(quinoxalin-6-yl)ethyl)piperazin-1-yl)-2-(hydroxymethyl)-5-methylimidazo[1,2-b]pyridazin-6(5H)-one]	5.05	5.64
CC[C@H]1CN(C(C)c2ccc3nccnc3c2)[C@H](CC)CN1c1cc(=O)[nH]n2cc(CC#N)nc12 (stereo partly drawn) [Compound A15, 2-(8-((2S,5R)-2,5-diethyl-4-(1-(quinoxalin-6-yl)ethyl)piperazin-1-yl)-6-oxo-5,6-dihydroimidazo[1,2-b]pyridazin-2-yl)acetonitrile]	5.41	5.36
CC[C@H]1CN(C(C)c2ccc3nc(C)sc3c2)[C@H](CC)CN1c1cc(=O)n(C)n2cc(C=NOC)nc12 (single isomer, unassigned) [Compound A123a]	5.31	6.57
CC[C@H]1CN(C(C)c2ccc3nc(C)sc3c2F)[C@H](C)CN1c1cc(=O)n(C)n2cc(CC#N)nc12 (single isomer, unassigned) [Compound A119a]	5.84	5.69
CC[C@H]1CN(C(C)c2ccc(C3CC3)nc2F)[C@H](CC)CN1c1cc(=O)n(C)n2cc(CC#N)nc12 (single isomer, unassigned) [Compound A42b]	5.90	5.97
CC[C@H]1CN(C(C)c2ccc3nc(C)sc3n2)[C@H](CC)CN1c1cc(=O)n(C)n2cc(C=NOC)nc12 (single isomer, unassigned) [Compound A124d]	6.20	8.23
CC(c1ccc2c(c1)OC(F)(F)O2)N1C[C@H](C)N(c2cc(=O)n(C)n3cc(CC#N)nc23)C[C@H]1C (stereo partly drawn) [Compound A31, 2-(8-((2S,5R)-4-(1-(2,2-difluorobenzo[d][1,3]dioxol-5-yl)ethyl)-2,5-dimethylpiperazin-1-yl)-5-methyl-6-oxo-5,6-dihydroimidazo[1,2-b]pyridazin-2-yl)acetonitrile]	5.95	5.71
CC[C@H]1CN(C(C)c2ccc3nc(C)sc3c2)[C@H](CC)CN1c1cc(=O)n(C)n2cc(C=NOC)nc12 (single isomer, unassigned) [Compound A123bc]	5.62	6.88

Now those with a higher pIC50 [1], led by results:

pIC50 [1]	pIC50 [2]	Structure (SMILES)
6.45	5.85	CC[C@H]1CN(C(C)c2ccc3nccnc3c2)[C@H](CC)CN1c1cc(=O)n(C)n2cc(CC#N)nc12 (single isomer, unassigned) [Compound A14b]
6.69	6.55	CC[C@@H]1CN(c2cc(=O)n(C)n3cc(CC#N)nc23)[C@@H](C)CN1C(C)c1ccc(C2CC2)nc1 (single isomer, unassigned) [Compound A43a]
6.84	7.30	CC[C@H]1CN(C(C)c2ccc3nc(C)sc3n2)[C@H](C)CN1c1cc(=O)n(C)n2cc(CC#N)nc12 (single isomer, unassigned) [Compound A121b]
6.90	6.40	CC[C@H]1CN(C(C)c2cc3sc(C)nc3cc2F)[C@H](CC)CN1c1cc(=O)n(C)n2cc(CC#N)nc12 (single isomer, unassigned) [Compound A61a]
7.12	7.64	CC[C@H]1CN(C(C)c2ccc(OC)cc2)[C@H](CC)CN1c1cc(=O)n(C)n2cc(CC#N)nc12 (stereo partly drawn) [Compound A72, 2-(8-((2S,5R)-2,5-diethyl-4-(1-(4-methoxyphenyl)ethyl)piperazin-1-yl)-5-methyl-6-oxo-5,6-dihydroimidazo[1,2-b]pyridazin-2-yl)acetonitrile]
7.41	5.64	Cc1cnc2ccc(C(C)N3C[C@H](C)N(c4c(C#N)c(=O)n(C)n5cc(CC#N)nc45)C[C@H]3C)cc2n1 (stereo partly drawn) [Compound A23, 2-(cyanomethyl)-8-((2S,5R)-2,5-dimethyl-4-(1-(3-methylquinoxalin-6-yl)ethyl)piperazin-1-yl)-5-methyl-6-oxo-5,6-dihydroimidazo[1,2-b]pyridazine-7-carbonitrile]
7.70	7.36	CC[C@H]1CN(C(C)c2ccc(C3CC3)nc2)[C@H](CC)CN1c1cc(=O)n(C)n2cc(CC#N)nc12 (single isomer, unassigned) [Compound A37a]
7.80	6.02	CC[C@@H]1CN(c2cc(=O)n(C)n3cc(CC#N)nc23)[C@@H](C)CN1C(C)c1ccc2nccnc2c1 (single isomer, unassigned) [Compound A13a]
7.82	7.21	CC[C@H]1CN(C(C)c2ccc3nc(CC4CC4)sc3n2)[C@H](CC)CN1c1cc(=O)n(C)n2cc(CC#N)nc12 (single isomer, unassigned) [Compound A110b]
7.85	5.45	CC[C@H]1CN(C(C)c2ccc(F)cc2C(F)F)[C@H](CC)CN1c1cc(=O)n(C)n2cc(CC#N)nc12 (stereo partly drawn) [Compound A34, 2-(8-((2S,5R)-4-(1-(2-(difluoromethyl)-4-fluorophenyl)ethyl)-2,5-diethylpiperazin-1-yl)-5-methyl-6-oxo-5,6-dihydroimidazo[1,2-b]pyridazin-2-yl)acetonitrile]
8.07	6.98	CC[C@H]1CN(C(C)c2ccc3ncsc3c2F)[C@H](CC)CN1c1cc(=O)n(C)n2cc(CC#N)nc12 (single isomer, unassigned) [Compound A62a]
8.14	7.88	CC[C@H]1CN(C(C)c2ccc3nc(C)sc3n2)[C@H](CC)CN1c1cc(=O)n(C)n2cc(CC#N)nc12 (single isomer, unassigned) [Compound A58b]
8.22	6.17	CC[C@@H]1CN(c2cc(=O)n(C)n3cc(CC#N)nc23)[C@@H](C)CN1C(C)c1ccc2nc(C)sc2c1F (single isomer, unassigned) [Compound A63a]

Reference: patent US20240327417A1, “HETEROCYCLIC COMPOUNDS” (BeiGene Switzerland GmbH, priority 2021, published 2024)
